Measured values reported in patent US4472409A, “2-Pyridylmethyl thio(sulfinyl)benzimidazoles with gastric acid secretion inhibiting effects” (Byk Gulden Lomberg Chemische Fabrik Gesellschaft mit …, priority 1981, dated 1984).

Legend:
[1] = test system: gastric ulcers provoked by a pylorus ligature (Shay rat); assay: Protective action on the stomach: antiulcerogenic test in the Shay rat (pylorus ligature + oral 100 mg/kg acetylsalicylic acid), reduction of ulcer index; type: in vivo; details: for ED25 / ED50: Rattus norvegicus, po; for ED25 / Protective action on the stomach (rat), ED25: dose reducing ulcer index by 25% vs control; for ED25 / ED50 / Protective action on the stomach (rat), ED25 / Protective action on the stomach (rat), ED50: logarithmic interpolation; for ED50 / Protective action on the stomach (rat), ED50: dose reducing ulcer index by 50% vs control; for Protective action on the stomach (rat), reduction in the ulcer index: 1 hour before pylorus ligature
Protocol: The effect of the compounds according to the invention on the formation of gastric ulcers provoked by a pylorus ligature (4 hours, so-called Shay rat) and oral administration of 100 mg/kg acetylsalicylic acid and on the inhibition of gastric secretion in rats during 4 hours is shown in the following table:
(§1) The antiulcerogenic action was tested in accordance with the method using the so-called Shay rat: Rats (female, 180 to 200 g, 4 animals per cage on a high grid) which had been fasted for 24 hours were subjected to ulcer provocation by pylorus ligature (under diethyl ether anaesthesia) and oral administration of 100 mg/10 ml/kg of acetylsalicyclic acid. The substances to be tested are administered orally (10 ml/kg) 1 hour before the pylorus ligature. The wound is closed by means of Michel clamps. 4 hours thereafter, the animals are killed under ether anaesthesia by atlas dislocation, and the stomach is removed. The stomach is opened longitudinally and fixed to a cork tile after the amount of gastric juice secreted [volume, and its hydrochloric acid content (titration with sodium hydroxide solution)] has been determined, the number and size (=diameter) of ulcers present are determined with a stereomicroscope with 10-fold magnification. The product of the degree of severity (according to the following rating scale) and the number of ulcers serves as the individual ulcer index.
The reduction in the average ulcer index of each treated group compared with that of the control group (=100%) serves as a measure of the antiulcerogenic effect. The ED25 and the ED50 designate the doses which reduce the average ulcer index and the gastric secretion by 25 and 50%.

[2] = test system: gastric secretion (HCl-secretion of the rat stomach); assay: Gastric secretion inhibition (HCl-secretion over 4 hours) in the Shay rat; type: in vivo; details: for ED25 / ED50: Rattus norvegicus, po; for ED25 / Gastric secretion (rat), ED25: dose reducing HCl secretion (sum 4 hours) by 25% vs control; for Gastric secretion (rat), inhibition in % of HCl-secretion: 4 hours
Protocol: as §1, with “index. The reduction in the average ulcer index of each treated group compared with that of the control group (=100%) serves as a measure of the antiulcerogenic effect. The ED25 and the ED50 designate the doses which reduce the average ulcer index and the gastric secretion by 25 and 50%.” for “index.”

[3] = dose reducing HCl secretion (sum 4 hours) by 50% vs control, logarithmic interpolation

| Compound | ED25 [1] [mg/kg] | ED50 [1] [mg/kg] | Protective action on the stomach (rat), reduction in the ulcer index ([1]; dose 1.0 mg/kg p.o.) [%] | Protective action on the stomach (rat), reduction in the ulcer index ([1]; dose 3.0 mg/kg p.o.) [%] | ED25 ([2]; logarithmic interpolation) [mg/kg] | ED50 [2, 3] [mg/kg] | Gastric secretion (rat), inhibition in % of HCl-secretion ([2]; dose 1.0 mg/kg p.o.) [%] | Gastric secretion (rat), inhibition in % of HCl-secretion ([2]; dose 3.0 mg/kg p.o.) [%] | Protective action on the stomach (rat), reduction in the ulcer index ([1]; dose 0.1 mg/kg p.o.) | Protective action on the stomach (rat), reduction in the ulcer index ([1]; dose 0.3 mg/kg p.o.) [%] | Protective action on the stomach (rat), ED25 [1] | Protective action on the stomach (rat), ED50 [1] | Gastric secretion (rat), inhibition in % of HCl-secretion ([2]; dose 0.1 mg/kg p.o.) | Gastric secretion (rat), inhibition in % of HCl-secretion ([2]; dose 0.3 mg/kg p.o.) [%] | Gastric secretion (rat), ED25 ([2]; logarithmic interpolation) | Gastric secretion (rat), ED50 [2, 3] | Protective action on the stomach (rat), reduction in the ulcer index ([1]; dose 10.0 mg/kg p.o.) [%] | Gastric secretion (rat), inhibition in % of HCl-secretion ([2]; dose 10.0 mg/kg p.o.) [%] |
| --- | --- | --- | --- | --- | --- | --- | --- | --- | --- | --- | --- | --- | --- | --- | --- | --- | --- | --- |
| COc1ccnc(CSc2nc3cc(C(F)(F)F)ccc3[nH]2)c1 [Serial No. 6, 5-Trifluoromethyl-2-[(4-methoxy-2-pyridylmethyl)thio]-(1H)-benzimidazole] | ~1 | 1.4 | 27 | 97 | 1.2 | 2 | 15 | 70 |  |  |  |  |  |  |  |  |  |  |
| 4-Trifluoromethyl-2-[(4-methoxy-2-pyridylmethyl)sulfinyl]-(1H)-benzimidazole [Example 1] |  |  | 27 | 58 |  |  | 15 | 22 | +1% | 12 | 0.9 mg/kg, p.o. | 2.3 mg/kg, p.o. | 5% | 9 | ≥ 3.0 mg/kg, p.o. |  |  |  |
| 5-Trifluoromethyl-2-[(4-methoxy-3,5-dimethyl-2-pyridylmethyl)thio]-(1H)-benzimidazole [Example 8] |  |  | 50 | 63 |  |  | 12 | 50 |  |  | < 1.0 mg/kg, p.o. | 1.0 mg/kg, p.o. |  |  | 1.5 mg/kg, p.o. | 3.0 mg/kg, p.o. |  |  |
| COc1c(C)cnc(C[S+]([O-])c2nc3cc(C(F)(F)F)ccc3[nH]2)c1C (stereo not drawn) [Serial No. 4, 5-Trifluoromethyl-2-[(4-methoxy-3,5-dimethyl-2-pyridylmethyl)sulfinyl]-(1H)-benzimidazole] | 0.24 | 0.55 | 69 | 89 | 0.48 | 1 | 50 | 75 | 1% | 30 |  |  | +5% | 10 |  |  |  |  |
| COc1ccnc(C[S+]([O-])c2nc3cc(C(F)(F)F)ccc3[nH]2)c1C (stereo not drawn) [Serial No. 3, 5-Trifluoromethyl-2-[(4-methoxy-3-methyl-2-pyridylmethyl)sulfinyl]-(1H)--benzimidazole] | 0.3 | 0.45 | 98 |  | < 0.3 | 0.4 | 88 |  |  | 25 |  |  |  | 40 |  |  | 100 | 92 |
| COc1ccnc(CSc2nc3cc(C(F)(F)F)ccc3[nH]2)c1C [Serial No. 7, 5-Trifluoromethyl-2-[(4-methoxy-3-methyl-2-pyridylmethyl)thio]-(1H)-benzimidazole] | ≤ 0.3 | 0.5 | 94 |  | 0.3 | 0.5 | 85 |  |  | 30 |  |  |  | 26 |  |  |  |  |
| COc1ccnc(C[S+]([O-])c2nc3cc(C(F)(F)F)ccc3[nH]2)c1 (stereo not drawn) [Serial No. 2, 5-Trifluoromethyl-2-[(4-methoxy-2-pyridylmethyl)sulfinyl]-(1H)-benzimidazole] | 0.24 | 0.45 | 88 | 100 | 0.35 | 0.75 | 60 | 84 | 6% | 29 |  |  | 0% | 18 |  |  |  |  |
